Results from patent US20070161697A1, “Hydrazide type compounds and the use thereof in pharmaceutical compositions for the treatment of cardiovascular diseases” (priority 2004, published 2007).
Structures can show the parent of a compound that is named as a salt. Where two headings read alike, the source gives them in different places.

Tests used:
THP1 cells [1] = experiment: Inhibition of binding and accumulation of cyanine 3-marked LDLox as lipid vesicles in differentiated THP1 macrophage cells; format: cell-based; conditions: Homo sapiens, 2.5 μM
Procedure: The culture medium may be replaced every two days.
In the present example, the accumulation of lipid vesicles within the cell was measured using THP1 cells following fixation with paraformaldehyde in PBS medium using a solution containing a fluorescent marker of the Oil Red O type in order to visualise the vesicles. The image of the cells rich in vesicles was analysed using a microscope ecqluipped with a CCD camera and software necessary for the analysis.
The medium was replaced every 2-3 days.
The differentiated THP-1 were subsequently incubated with LDLox coupled with cyanine-3 (1.5 μg/ml) in the presence or absence of the molecule CGP02-01 (concentrations of between 10^−5M and 3.1.6 10^−10M) for 24 hours at 37° C., 5% CO2. […] Each image was analysed and quantified with the MetaMorph software (Universal Imaging).

THP1 cells [2] = experiment: as above; format: cell-based; conditions: 3 μg/ml oxLDL-cyanine 3, 25 hours, different concentrations, FIG. 7
Wistar rats [3] = experiment: Total cholesterol in plasma, rats on dietary regimen rich in fructose; format: in vivo; conditions: 50 mg/kg oral, 3 weeks of treatment
Procedure: Secondly, the activity of the compound CGP 02-01 was studied using a reference rat-fructose model. Groups of Wistar rats (n=12) were subjected for 3 weeks to a dietary regimen containing […] of fructose. Under these conditions, the rats develop a metabolic syndrome comprising hyperglycaemia, hyperinsulinaemia, hypercholesterolaemia and hypertriglyceridaemia. Groups of rats subsequently received by forced feeding 50 mg/kg of the compound CGP 02-01 dissolved in a 2% tween solution prepared in methylcellulose. The blood samples for the biochemical analyses were performed after 1, 2 and 3 weeks. Independent groups of rats wee treated under the same conditions with metformin hydrochloride at a dose of 50 mg/kg. The metformin served as a reference in this metabolic syndrome model. The circulating total cholesterol may be measured by enzymatic assay using the commercially available kit. This assay may for example use an enzymatic sequence of the cholesterol-esterase/cholesteroloxydase/chromogenic peroxidase type. In summary, the total esterified cholesterol is transformed into free cholesterol and fatty acid by the action of cholesterol esterase. The non-esterified cholesterol is subsequently measured by the formation of quinoeimine in the presence of cholesterol oxidase and peroxidise. The intensity of the quinoneimine coloration is proportional to the quantity of cholesterol present in the sample.

Wistar rats [4] = experiment: Insulin in plasma, rats on dietary regimen rich in fructose; format: in vivo; conditions: 50 mg/kg oral
Procedure: Secondly, the activity of the compound CGP 02-01 was studied using a reference rat-fructose model. Groups of Wistar rats (n=12) were subjected for 3 weeks to a dietary regimen containing […] of fructose. […] Groups of rats subsequently received by forced feeding 50 mg/kg of the compound CGP 02-01 dissolved in a 2% tween solution prepared in methylcellulose. The blood samples for the biochemical analyses were performed after 1, 2 and 3 weeks. Independent groups of rats wee treated under the same conditions with metformin hydrochloride at a dose of 50 mg/kg. The metformin served as a reference in this metabolic syndrome model. Assay of insulin in plasma may be performed by radioimmunological assay using commercially available kits comprising specific anti-insulin antibodies of mice or rats. One may for example use the rat/mouse ELISA kits, Linco research (ref. EZRMI-13K).

Wistar rats [5] = experiment: Circulating triglycerides, rats on dietary regimen rich in fructose; format: in vivo; conditions: oral
Procedure: Secondly, the activity of the compound CGP 02-01 was studied using a reference rat-fructose model. Groups of Wistar rats (n=12) were subjected for 3 weeks to a dietary regimen containing […] of fructose. […] Groups of rats subsequently received by forced feeding 50 mg/kg of the compound CGP 02-01 dissolved in a 2% tween solution prepared in methylcellulose. The blood samples for the biochemical analyses were performed after 1, 2 and 3 weeks. Independent groups of rats wee treated under the same conditions with metformin hydrochloride at a dose of 50 mg/kg. The metformin served as a reference in this metabolic syndrome model. Assay of serum triglycerides may be performed enzymatically using the commercially available kit. One may use kits from Biomérieux for example (ref. 61.238). In summary, the triglycerides are treated with a lipase in order to generate fatty acids. In the presence of ATP, the glycerol is transformed by glycerokinase into glycerol 3 phosphate. The glycerol 3 phosphate is subsequently transformed into dihydroxyacetone in generating oxygenated water (H202) which may be detected by formation of quinoneimine in the presence of parachlorophenol, amino-4-antipyrin and peroxidase. The intensity of the quinoneimine coloration is subsequently measured at 505 nm. This coloration is proportional to the quantity of triglycerides present in the sample.

[6] = THP-1, cells expressing the scavenger CD36, lipoproteins marked with cyanine 3, read-out: Inhibition of accumulation of LDLox in (%)
[7] = THP-1 cells, 24 hours, read-out: Inhibition at 2.5 μM on THP-1 cells (24 hours)

Row | Structure (SMILES) | inhibition at 2.5 µM (THP1 cells [1]; [6]) [%] | inhibition at 2.5 µM (THP1 cells [1]; [7]) [%] | also measured
1 | COc1cc(O)c(/C=N/NC(=O)C=Cc2ccco2)c(OC)c1 (stereo in doubt) [CGP02-02, (2Z)-3-(2-furyl)-N′-[(1E)-(2-hydroxy-4,6-dimethoxyphenyl)methylene] acrylohydrazide] | 64 | 64 | Inhibition of formation of foamy cells (THP1 cells [2]): inhibition of formation of foamy cells
2 | COc1cc(O)c(/C=N/NC(=O)c2ccc(C)s2)c(OC)c1 [CGP02-03, N′-[(1E)-(2-hydroxy-4,6-dimethoxyphenyl)methylene]-5-methylthiophene-2-carbohydrazide] | 82 | 82 | Inhibition of formation of foamy cells (THP1 cells [2]): inhibition of formation of foamy cells
3 | COc1cc(O)c(/C=N/NC(=O)c2ccc(N(C)C)cc2)c(OC)c1 [CGP02-04] | 61 | 61 | 
4 | COc1cc(O)c(/C=N/NC(=O)c2ccccc2CCc2ccccc2)c(OC)c1 [CGP02-05, 2-phenethylbenzoic acid (2-hydroxy-4,6-dimethoxy-benzylidene)-hydrazide] | 77 | 77 | 
5 | CCC(=O)Nc1cccc(C(=O)N/N=C/c2c(O)cc(OC)cc2OC)c1 [CGP02-06] | 71 | 71 | 
6 | COc1cc(O)c(/C=N/NC(=O)c2ccco2)c(OC)c1 [CGP02-07, 2-furancarboxylic acid (2-hydroxy-4,6-dimethoxy-benzylidene)-hydrazide] | 63 | 63 | 
7 | COc1cc(O)c(/C=N/NC(=O)Cc2c[nH]c3ccccc23)c(OC)c1 [CGP02-08, (1H-indol-3-yl) acetic acid (2-hydroxy-4,6-dimethoxybenzylidene)-hydrazide] | 58 | 58 | 
8 | COc1cc(O)c(/C=N/NC(=O)CC2Sc3ccccc3NC2=O)c(OC)c1 (centres unmarked) [CGP02-10] | 52 | 52 | 
9 | COc1cc(O)c(/C=N/NC(=O)c2ccccc2Oc2ccccc2)c(OC)c1 [CGP02-11, 2-phenoxy-benzoic acid (2-hydroxy-4,6-dimethoxybenzylidene)-hydrazide] | 44 | 44 | 
10 | Cc1nn(-c2ccccc2)c(C)c1/C=N/NC(=O)c1ccc([N+](=O)[O-])o1 [CGP02-12] | 43 | 43 | 
11 | COc1cc(O)c(/C=N/NC(=O)c2c(F)cccc2F)c(OC)c1 [CGP02-13, 2,6-difluorobenzoic acid (2-hydroxy-4,6-dimethoxybenzylidene)-hydrazide] | 68 | 68 | 
12 | COc1cc(O)c(/C=N/NC(=O)c2ccc(C(F)(F)F)cc2)c(OC)c1 [CGP02-16, 4-trifluoromethylbenzoic acid (2-hydroxy-4,6-dimethoxy-benzylidene)-hydrazide] | 77 | 77 | 
13 | CCN(CC)c1ccc(/C=N/NC(=O)c2ccc(OC)c(OC)c2)c(O)c1 [CGP02-17, 3,4-dimethoxybenzoic acid (4-diethylamino-2-hydroxy-benzylidene)-hydrazide] | 88 | 88 | 
14 | O=C(N/N=C/c1cc(Br)cc(Br)c1O)c1cc2ccccc2s1 [CGP02-18, benzo[b]thiophene-2-carboxylic acid (3,5-dibromo-2-hydroxy-benzylidene)-hydrazide] | 78 | 78 | 
15 | CN(C)C(=N)N=C(N)N [Metformin, metformin hydrochloride, reference compound] |  |  | Reduction in total cholesterol (Wistar rats [3]): 16%; Plasma total cholesterol level (Wistar rats [3]; control 0.79±0.05): 0.66 ± 0.02 g/L; Variation (reduction) of insulin level (Wistar rats [4]): 16.2%; Plasma triglyceride level (Wistar rats [5]; 50 mg/kg, 3 weeks, control 1.39±0.13): 1.21 ± 0.08 g/L; Effect on plasma triglyceride level (Wistar rats [5]; same conditions): does not have any effect
